Measured values as given in US20210309666A1, “SMALL MOLECULE MDM2 PROTEIN DEGRADERS” (THE REGENTS OF THE UNIVERSITY OF MICHIGAN, priority 2018, published 2021).
Read-outs that look alike come from different tables or passages of the source.

Columns and labels:
[1] = Separate PK experiment, plasma concentrations after oral dose; format: in vivo; conditions: mouse, 50 mg/kg, mice
Source text: In a separate PK experiment, the plasma concentrations of Cpd.

MOLM-13 cells = assay: Cell growth inhibition, 4-day proliferation assay (WST-8); format: cell-based; conditions: Homo sapiens, 96 h; MOLM-13, acute myeloid leukemia, 4 days
Experimental: (§1) The effect of representative Compounds of the Disclosure on cell viability was determined in a 4-day proliferation assay. Cells were maintained in the appropriate culture medium with 10% FBS at 37° C. and an atmosphere of 5% CO2. Also, the effect of a MDM2 inhibitor (Cpd. A; see Compound Example No. 22 of U.S. Pat. No. 8,629,141) and a known MDM2 degrader (Cpd. D, see Cpd. No. 175 of WO 2017/0176957) on cell viability in various cell lines is also included in Table 5. Cpd. […] A and D. The structure of Cpd. A is:
(§2) Cells were seeded in 96-well flat bottom (Corning COSTAR, Corning, N.Y., cat #3595) at a density of 2,000-3,000 cells/well in 100 μL of culture medium. Compounds were serially diluted in the appropriate medium, and 100 μL of the diluted compounds were added to the appropriate wells of the cell plate. After the addition of compounds, the cells were incubated at 37° C. in an atmosphere of 5% CO2 for 4 days. Cell viability was determined using the WST (2-(2-methoxy-4-nitrophenyl)-3-(4-nitrophenyl)-5-(2,4-disulfophenyl)-2H-tetrazolium, monosodium salt) Cell Counting-8 Kit (Dojindo Molecular Technologies, Inc., Rockville, Md.) according to the manufacturers' instructions.
(§3) WST-8 reagent was added to each well at a final concentration of 10% (v/v), and then the plates were incubated at 37° C. for 1-2 hours for color development. The absorbance was measured at 450 nm using a SPECTRAmax PLUS plate reader (Molecular Devices, Sunnyvale, Calif.). The readings were normalized to the DMSO-treated cells and the half maximal inhibitory concentration (IC50) was calculated by nonlinear regression (four parameters sigmoid fitted with variable slope, least squares fit, and no constraint) analysis using the GraphPad Prism 5 software (GraphPad Software, La Jolla, Calif.).

SIG-M5 cells = assay: as above; format: cell-based; conditions: Homo sapiens, 96 h; SIG-M5, acute myeloid leukemia, 4 days
Experimental: as §1, §2, §3

OCI-AML-5 cells = assay: as above; format: cell-based; conditions: Homo sapiens, 96 h; OCI-AML-5, acute myeloid leukemia, 4 days
Experimental: as §1, §2, §3

OCI-AML-2 cells = assay: as above; format: cell-based; conditions: Homo sapiens, OCI-AML2, 96 h; OCI-AML-2, acute myeloid leukemia, 4 days
Experimental: as §1, §2, §3

ML-2 cells = assay: as above; format: cell-based; conditions: Homo sapiens, 96 h; ML-2, acute myeloid leukemia, 4 days
Experimental: as §1, §2, §3

MV-4;11 cells = assay: as above; format: cell-based; conditions: Homo sapiens, MV4-11, 96 h, 11, acute biphenotypic B myelomonocytic leukemia, 4 days
Experimental: as §1, §2, §3

LNCaP cells = assay: as above; format: cell-based; conditions: Homo sapiens, 96 h, prostate carcinoma, 4 days
Experimental: as §1, §2, §3

RS4;11 cells = assay: as above; format: cell-based; conditions: Homo sapiens, 96 h; RS4; 11, precursor cell lymphoblastic leukemia, 4 days; read-out: IC50
Experimental: as §1, §2, §3

HCT116 cells = assay: as above; format: cell-based; conditions: Homo sapiens, HCT-116, 96 h; HCT116, colorectal carcinoma, 4 days
Experimental: as §1, §2, §3

MOLM-14 cells = assay: as above; format: cell-based; conditions: Homo sapiens, 96 h; MOLM-14, acute myeloid leukemia, 4 days
Experimental: as §1, §2, §3

22RV1 cells = assay: as above; format: cell-based; conditions: Homo sapiens, 96 h; 22RV1, prostate carcinoma, 4 days
Experimental: as §1, §2, §3

[2] = Pharmacokinetics in mice, oral and IV; format: in vivo; conditions: for F: PO 50 mg/kg vs IV 10 mg/kg; for AUC: mouse, in vivo
Experimental: The pharmacokinetics of Cpd. Nos. 4 and 6, and Cpd. D were evaluated in mice.

p53 protein [3] = assay: Western blot analysis in 22RV1 cells, p53; format: cell-based, human; conditions: 2 hr treatment
Experimental: (§4) 22RV1 cells were treated with Cpd. No. 4 and Cpd. D (MDM2 degraders) or with Cpd. A (MDM2 inhibitor) for 2 hr. MDM2 and p53 proteins were probed using specific antibodies. GAPDH was used as the loading control. […] No. 4 and Cpd. D reduce MDM2 protein and increase p53 protein level, and that Cpd. A increases MDM2 and p53 protein levels in 22RV1 cells.

MDM2 protein [4] = target: T1, MDM2 protein (Homo sapiens, UniProt Q00987); assay: Western blot analysis in 22RV1 cells, MDM2; format: cell-based; parameters: endogenous in cells; conditions: 2 hr treatment
Experimental: as §4

p53 protein [5] = assay: Western blot analysis in RS4;11 cells, p53; format: cell-based, human; conditions: 2 hr treatment
Experimental: (§5) RS4;11 cells were treated with Cpd. No. 4 and Cpd. No. 6 (MDM2 degraders) or with Cpd. B and Cpd. C (MDM2 inhibitors) for 2 hr. MDM2 and p53 proteins were probed using specific antibodies. GAPDH was used as the loading control. […] No. 4 and Cpd. No. 6 reduce MDM2 protein and increase p53 protein level, and that Cpd. B and Cpd. C increase MDM2 and p53 protein levels in RS4;11 cells. The structures of Cpd. B (see Compound Example No. 24 of U.S. Pat. No. 8,629,141) and Cpd.

MDM2 protein [6] = target: T1, MDM2 protein; assay: Western blot analysis in RS4;11 cells, MDM2; format: cell-based; parameters: No. 4 and Cpd; No. 6 (MDM2 degraders); endogenous in cells; host or cells: RS4;11; conditions: 2 hr treatment
Experimental: as §5

[7] = read-out: Plasma concentration, Average / Mean
[8] = read-out: Plasma concentration, Mouse 1
[9] = read-out: Plasma concentration, Mouse 2

T1 sequence (Q00987 whole entry): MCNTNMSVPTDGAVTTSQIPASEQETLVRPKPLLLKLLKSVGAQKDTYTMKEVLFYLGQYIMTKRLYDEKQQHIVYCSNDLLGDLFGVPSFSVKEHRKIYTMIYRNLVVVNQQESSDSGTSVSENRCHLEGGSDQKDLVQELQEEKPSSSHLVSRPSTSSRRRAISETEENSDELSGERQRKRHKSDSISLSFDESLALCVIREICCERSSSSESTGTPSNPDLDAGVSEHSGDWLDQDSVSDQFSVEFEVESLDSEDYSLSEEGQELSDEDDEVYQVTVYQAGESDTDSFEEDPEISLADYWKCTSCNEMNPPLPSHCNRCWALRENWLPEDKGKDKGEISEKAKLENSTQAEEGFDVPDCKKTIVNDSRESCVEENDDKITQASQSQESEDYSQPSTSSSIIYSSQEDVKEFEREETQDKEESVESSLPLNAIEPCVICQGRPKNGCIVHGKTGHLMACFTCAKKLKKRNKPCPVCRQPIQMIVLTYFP

Row | concentration at 1 h [1, 7] | concentration at 1 h [1, 8] | concentration at 1 h [1, 9] | concentration at 3 h [1, 7] | concentration at 3 h [1, 8] | concentration at 3 h [1, 9] | concentration at 6 h [1, 7] | concentration at 6 h [1, 8] | concentration at 6 h [1, 9] | IC50 (MOLM-13 cells) | IC50 (OCI-AML-5 cells) | IC50 (OCI-AML-2 cells) | IC50 (MV-4;11 cells) | IC50 (LNCaP cells) | IC50 (RS4;11 cells) | IC50 (22RV1 cells) | SMILES | IC50 (SIG-M5 cells) | IC50 (ML-2 cells) | p53 protein level (p53 protein [5]) | MDM2 protein level (MDM2 protein [6]) | also measured
1 | 77.9 ng/mL | 78 ng/mL | 77.8 ng/mL | 624 ng/mL | 510 ng/mL | 738 ng/mL | 414 ng/mL | 234 ng/mL | 594 ng/mL | 34 nM | 150 nM | 110 nM | 10 nM | 33 nM | 2.9 nM | 45 nM | O=C1CCC(N2Cc3c(C#CC4CCN(C(=O)c5ccc(NC(=O)[C@@H]6NC7(CCCCC7)[C@@]7(C(=O)Nc8cc(Cl)ccc87)[C@H]6c6cccc(Cl)c6F)cc5)CC4)cccc3C2=O)C(=O)N1 (stereo partly shown) [Cpd. D, reference compound] | 110 nM | 11 nM |  |  | IC50 (HCT116 cells): 400 nM; IC50 (MOLM-14 cells): 78 nM; F [2]: 1.27%; AUC ([2]; IV, 10 mg/kg): 193000 ng·h/mL; AUC ([2]; PO, 50 mg/kg): 12300 ng·h/mL; p53 protein level (p53 protein [3]): increase; MDM2 protein level (MDM2 protein [4]): reduce
2 | 0.62 ng/mL | 0.231 ng/mL | 1.01 ng/mL | 1320 ng/mL | 902 ng/mL | 1730 ng/mL | 338 ng/mL | 231 ng/mL | 446 ng/mL | 5.1 nM | 23 nM | 21 nM | 2.3 nM | 3.2 nM | 0.72 nM | 14 nM | O=C1CCC(N2Cc3c(C#CC4CCN(C(=O)[C@H]5CC[C@H](NC(=O)[C@@H]6NC7(CCCCC7)[C@@]7(C(=O)Nc8cc(Cl)ccc87)[C@H]6c6cccc(Cl)c6F)CC5)CC4)cccc3C2=O)C(=O)N1 (stereo partly drawn) [Cpd. No. 4, (3′R,4′S,5′R)-6″-chloro-4′-(3-chloro-2-fluorophenyl)-N-((1r,4R)-4-(4-((2-(2,6-dioxopiperidin-3-yl)-1-oxoisoindolin-4-yl)ethynyl)piperidine-1-carbonyl)cyclohexyl)-2″-oxodispiro[cyclohexane-1,2′-pyrrolidine-3′,3″-indoline]-5′-carboxamide] | 21 nM | 1.2 nM | increase | reduce | IC50 (HCT116 cells): 86 nM; IC50 (MOLM-14 cells): 7.8 nM; F [2]: 0.93%; AUC ([2]; IV, 10 mg/kg): 156000 ng·h/mL; AUC ([2]; PO, 50 mg/kg): 7250 ng·h/mL; p53 protein level (p53 protein [3]): increase; MDM2 protein level (MDM2 protein [4]): reduce
3 |  |  |  |  |  |  |  |  |  |  |  |  |  |  | 138 nM | 1330 nM | O=C(O)c1ccc(NC(=O)[C@@H]2NC3(CCCCC3)[C@@]3(C(=O)Nc4cc(Cl)ccc43)[C@H]2c2cccc(Cl)c2F)cc1 [Cpd. A, reference compound] |  |  |  |  | p53 protein level (p53 protein [3]): increases; MDM2 protein level (MDM2 protein [4]): increases
4 | 0.42 ng/mL | 0.576 ng/mL | 0.257 ng/mL | 3220 ng/mL | 3110 ng/mL | 3330 ng/mL | 2380 ng/mL | 2320 ng/mL | 2430 ng/mL | 18 nM | 71 nM | 69 nM | 6.4 nM | 13 nM | 2.4 nM | 42 nM | O=C1CCC(N2Cc3c(C#CC4CCN(C(=O)C56CCC(NC(=O)[C@@H]7NC8(CCCCC8)[C@@]8(C(=O)Nc9cc(Cl)ccc98)[C@H]7c7cccc(Cl)c7F)(CC5)CC6)CC4)cccc3C2=O)C(=O)N1 (stereo partly drawn) [Cpd. No. 6, (3′R,4′S,5′R)-6″-chloro-4′-(3-chloro-2-fluorophenyl)-N-(4-(4-((2-(2,6-dioxopiperidin-3-yl)-1-oxoisoindolin-4-yl)ethynyl)piperidine-1-carbonyl)bicyclo[2.2.2]octan-1-yl)-2″-oxodispiro[cyclohexane-1,2′-pyrrolidine-3′,3″-indoline]-5′-carboxamide] | 63 nM | 4.9 nM | increase | reduce | IC50 (HCT116 cells): 310 nM; IC50 (MOLM-14 cells): 25 nM; F [2]: 5.7%; AUC ([2]; IV, 10 mg/kg): 154000 ng·h/mL; AUC ([2]; PO, 50 mg/kg): 43500 ng·h/mL
5 |  |  |  |  |  |  |  |  |  |  |  |  |  |  |  |  | O=C(N[C@H]1CC[C@H](C(=O)O)CC1)[C@@H]1NC2(CCCCC2)[C@@]2(C(=O)Nc3cc(Cl)ccc32)[C@H]1c1cccc(Cl)c1F [Cpd. B, reference compound] |  |  | increase | increase | 
6 |  |  |  |  |  |  |  |  |  |  |  |  |  |  |  |  | O=C(NC12CCC(C(=O)O)(CC1)CC2)[C@@H]1NC2(CCCCC2)[C@@]2(C(=O)Nc3cc(Cl)ccc32)[C@H]1c1cccc(Cl)c1F [Cpd. C, reference compound] |  |  | increase | increase | 
